Data taken from ChEMBL document CHEMBL5620345, “Metal binding pharmacophore click-derived discovery of new broad-spectrum metallo-β-lactamase inhibitors” (Eur J Med Chem, 2023).

Tests used:
[1] = Inhibition of recombinant his tagged IMP1 (unknown origin) expressed in Escherichia coli (DE3) cells using FC5 as substrate by microplate reader assay
[2] = Inhibition of recombinant NDM1 (unknown origin) expressed in Escherichia coli (DE3) cells using FC5 as substrate by microplate reader assay
[3] = Inhibition of recombinant VIM-1 (unknown origin) expressed in Escherichia coli (DE3) cells using FC5 as substrate by microplate reader assay
[4] = Inhibition of recombinant his tagged VIM-2 (unknown origin) expressed in Escherichia coli (DE3) cells using FC5 as substrate by microplate reader assay
[5] = Inhibition of recombinant VIM-5 (unknown origin) expressed in Escherichia coli (DE3) cells using FC5 as substrate by microplate reader assay
Escherichia coli [6] = assay: Antibacterial activity against Escherichia coli BAA2452 expressing blaNDM-1 clinical isolates assessed as meropenem MIC incubated for 16 to 18 hrs by broth microdilution method; format: functional; settings: time 16-18 hrs; further: test concentration or dose not given here
Enterobacterales [7] = assay: Antibacterial activity against Carbapenem-Resistant Enterobacterales 19 expressing blaNDM-1 clinical isolates assessed as meropenem MIC incubated for 16 to 18 hrs by broth microdilution method; format: functional; settings: time 16-18 hrs; further: test concentration or dose not given here
Klebsiella pneumoniae [8] = assay: Antibacterial activity against Klebsiella pneumoniae BAA2470 expressing blaNDM-1 clinical isolates assessed as meropenem MIC incubated for 16 to 18 hrs by broth microdilution method; format: functional; settings: time 16-18 hrs; further: test concentration or dose not given here
Escherichia coli [9] = assay: Antibacterial activity against Escherichia coli C1580 expressing blaIMP-1 clinical isolates assessed as meropenem MIC incubated for 16 to 18 hrs by broth microdilution method; format: functional; settings: time 16-18 hrs; further: test concentration or dose not given here
Escherichia coli [10] = assay: Antibacterial activity against Escherichia coli BAA2452 expressing blaNDM-1 clinical isolates assessed as fold potentiation incubated for 16 to 18 hrs by broth microdilution method; format: functional; settings: time 16-18 hrs; further: test concentration or dose not given here
Enterobacterales [11] = assay: Antibacterial activity against Carbapenem-Resistant Enterobacterales 19 expressing blaNDM-1 clinical isolates assessed as fold potentiation incubated for 16 to 18 hrs by broth microdilution method; format: functional; settings: time 16-18 hrs; further: test concentration or dose not given here
Klebsiella pneumoniae [12] = assay: Antibacterial activity against Klebsiella pneumoniae BAA2470 expressing blaNDM-1 clinical isolates assessed as fold potentiation incubated for 16 to 18 hrs by broth microdilution method; format: functional; settings: time 16-18 hrs; further: test concentration or dose not given here
Escherichia coli [13] = assay: Antibacterial activity against Escherichia coli C1580 expressing blaIMP-1 clinical isolates assessed as fold potentiation incubated for 16 to 18 hrs by broth microdilution method; format: functional; settings: time 16-18 hrs; further: test concentration or dose not given here
Escherichia coli [14] = assay: Antibacterial activity against Escherichia coli C1541 expressing blaVIM-2 clinical isolates assessed as meropenem MIC incubated for 16 to 18 hrs by broth microdilution method; format: functional; settings: time 16-18 hrs; further: test concentration or dose not given here
Escherichia coli [15] = assay: Antibacterial activity against Escherichia coli C1541 expressing blaVIM-2 clinical isolates assessed as fold potentiation incubated for 16 to 18 hrs by broth microdilution method; format: functional; settings: time 16-18 hrs; further: test concentration or dose not given here

SMILES | IC50 [1] [µM] | IC50 [2] [µM] | IC50 [3] [µM] | IC50 [4] [µM] | IC50 [5] [µM] | MIC (Escherichia coli [6]) [µg/mL] | MIC (Enterobacterales [7]) [µg/mL] | MIC (Klebsiella pneumoniae [8]) [µg/mL] | MIC (Escherichia coli [9]) [µg/mL] | fold change (FC) (Escherichia coli [10]) | fold change (FC) (Enterobacterales [11]) | fold change (FC) (Klebsiella pneumoniae [12]) | fold change (FC) (Escherichia coli [13]) | MIC (Escherichia coli [14]) [µg/mL] | fold change (FC) (Escherichia coli [15])
NCC(=O)Nc1cccc(-c2cn(-c3cccc(CP(=O)(O)O)c3)nn2)c1 | 24.1 | 19.3 | 1.82 | 0.29 | 0.086 | – | – | – | – | – | – | – | – | – | –
Cc1ccc(-c2ccc(C(c3cccc(-n4cc(-c5cccc(N)c5)nn4)c3)P(=O)(O)O)cc2)cc1 (centres undefined) | 0.43 | 0.59 | 0.66 | 0.00066 | 0.002 | 16 | 8 | 64 | 2 | 8 | 8 | >2 | 16 | – | –
Nc1cccc(-c2cn(-c3cccc(CP(=O)(O)O)c3)nn2)c1 | 1.96 | 7.27 | 2.21 | 0.092 | 0.019 | 32 | 16 | 128 | 2 | 4 | 4 | >1 | 16 | 4 | 4
O=P(O)(O)Cc1cccc(-n2cc(-c3ccc(Br)cc3)nn2)c1 | 3.28 | 11.2 | 11.4 | 0.076 | 0.05 | 32 | 16 | 128 | 2 | 4 | 4 | >1 | 16 | 4 | 4
O=C(NCc1cccc(-c2cn(-c3cccc(CP(=O)(O)O)c3)nn2)c1)C(F)(F)F | 6.54 | 58.4 | 12.3 | 1.98 | 0.11 | – | – | – | – | – | – | – | – | – | –
CCCCc1cn(-c2cccc(CP(=O)(O)O)c2)nn1 | 12.3 | > 100 | 16.5 | 2.23 | 1.73 | – | – | – | – | – | – | – | – | – | –
O=P(O)(O)Cc1cccc(-n2cc(CNc3ccccc3)nn2)c1 | 0.78 | 2.84 | 3.77 | 0.84 | 0.64 | – | – | – | – | – | – | – | – | – | –
COc1ccc(-c2cn(-c3cccc(CP(=O)(O)O)c3)nn2)cc1 | 6.41 | 7.63 | 4.26 | 0.17 | 0.043 | – | – | – | – | – | – | – | – | – | –
Nc1ccccc1-c1cn(-c2cccc(CP(=O)(O)O)c2)nn1 | 6.5 | 7.71 | 5.61 | 0.013 | 0.51 | 32 | 8 | 128 | 2 | 4 | 8 | >1 | 16 | 1 | 16
COc1cccc(-c2cn(-c3cccc(CP(=O)(O)O)c3)nn2)c1 | 12.2 | 60 | 8.74 | 0.83 | 0.093 | – | – | – | – | – | – | – | – | – | –
Nc1cccc(-c2cn(-c3cccc(C(c4ccc(F)cc4)P(=O)(O)O)c3)nn2)c1 (centres undefined) | 0.7 | 2 | 0.44 | 0.006 | 0.001 | 16 | 8 | 64 | 2 | 8 | 8 | >2 | 16 | 0.5 | 32
O=[N+]([O-])c1ccc(Cn2cc(-c3cccc(B(O)O)c3)nn2)cc1 | > 100 | 48 | > 100 | 9.76 | 81.1 | 64 | 32 | > 128 | 16 | 2 | 2 | – | 2 | 64 | –
O=P(O)(O)Cc1ccc(-n2cc(CNc3ccccc3)nn2)cc1 | > 100 | > 100 | 26.7 | 13.3 | 7.43 | – | – | – | – | – | – | – | – | – | –
Nc1cccc(-c2cn(-c3cccc(C(c4ccc(Cl)cc4)P(=O)(O)O)c3)nn2)c1 (centres undefined) | 0.54 | 0.67 | 0.34 | 0.001 | 0.00043 | 16 | 8 | 64 | 2 | 8 | 8 | >2 | 16 | 1 | 16
CC(C)(C)c1cn(-c2cccc(CP(=O)(O)O)c2)nn1 | 9.5 | 27.1 | 24.6 | 4.44 | 0.52 | – | – | – | – | – | – | – | – | – | –
O=P(O)(O)Cc1cccc(-n2cc(-c3ccccc3Br)nn2)c1 | 1.9 | 5.2 | 7.16 | 0.72 | 0.095 | 32 | 16 | 128 | 2 | 4 | 4 | >1 | 16 | 4 | 4
NCc1cccc(-c2cn(-c3cccc(CP(=O)(O)O)c3)nn2)c1 | 37.1 | 42.5 | 7.75 | 2.56 | 0.28 | – | – | – | – | – | – | – | – | – | –
Nc1cccc(-c2cn(-c3cccc(C(c4ccc(Br)cc4)P(=O)(O)O)c3)nn2)c1 (centres undefined) | 0.44 | 0.66 | 0.2 | 0.007 | 0.003 | 16 | 8 | 64 | 4 | 8 | 8 | >2 | 8 | 1 | 16
NCCOc1ccc(-c2cn(-c3cccc(C(=O)O)c3C(=O)O)nn2)cc1 | 1.83 | > 100 | > 100 | 3.69 | > 100 | 64 | 64 | > 128 | 0.25 | 2 | 1 | – | 128 | 32 | –
O=C(NCc1cn(-c2ccc(CP(=O)(O)O)cc2)nn1)C(F)(F)F | > 100 | > 100 | 27.9 | 27.2 | 31.8 | – | – | – | – | – | – | – | – | – | –
O=C(NCc1cn(-c2cccc(CP(=O)(O)O)c2)nn1)C(F)(F)F | 54.6 | 73.7 | 33.7 | 2.22 | 0.028 | – | – | – | – | – | – | – | – | – | –
NCc1cn(-c2cccc(CP(=O)(O)O)c2)nn1 | > 100 | > 100 | 23.9 | 2.69 | 14.5 | – | – | – | – | – | – | – | – | – | –

Further lines, with some results ahead:

IC50 [1] [µM] | IC50 [2] [µM] | IC50 [3] [µM] | IC50 [4] [µM] | IC50 [5] [µM] | SMILES | MIC (Escherichia coli [6]) [µg/mL] | MIC (Enterobacterales [7]) [µg/mL] | MIC (Klebsiella pneumoniae [8]) [µg/mL] | MIC (Escherichia coli [9]) [µg/mL] | fold change (FC) (Escherichia coli [10]) | fold change (FC) (Enterobacterales [11]) | fold change (FC) (Klebsiella pneumoniae [12]) | fold change (FC) (Escherichia coli [13]) | MIC (Escherichia coli [14]) [µg/mL] | fold change (FC) (Escherichia coli [15])
4.4 | 24.6 | 5.48 | 0.77 | 0.045 | Cc1ccc(-c2cn(-c3cccc(CP(=O)(O)O)c3)nn2)cc1 | – | – | – | – | – | – | – | – | – | –
> 100 | > 100 | 8.99 | 2.44 | 2.03 | O=P(O)(O)Cc1ccc(-n2cc(-c3cccc(Cl)c3)nn2)cc1 | – | – | – | – | – | – | – | – | – | –
3.24 | 15.1 | 5.84 | 0.17 | 0.28 | Nc1ccc(-c2cn(-c3cccc(CP(=O)(O)O)c3)nn2)cc1 | – | – | – | – | – | – | – | – | – | –
2.17 | 24.3 | 9.64 | 0.29 | 0.063 | O=P(O)(O)Cc1cccc(-n2cc(-c3ccc(F)cc3)nn2)c1 | – | – | – | – | – | – | – | – | – | –
> 100 | 65.5 | 11.8 | 2.03 | 1.16 | Cc1cccc(-c2cn(-c3ccc(CP(=O)(O)O)cc3)nn2)c1 | – | – | – | – | – | – | – | – | – | –
8.34 | 40.2 | 7.12 | 0.44 | 0.18 | O=P(O)(O)Cc1cccc(-n2cc(-c3ccc(Cl)cc3)nn2)c1 | – | – | – | – | – | – | – | – | – | –
11.3 | 24.2 | 4.97 | 0.66 | 0.016 | O=P(O)(O)Cc1cccc(-n2cc(-c3cccc(Br)c3)nn2)c1 | – | – | – | – | – | – | – | – | – | –
> 100 | 16.6 | 22.1 | 2.48 | 2.28 | Nc1ccccc1-c1cn(-c2ccc(CP(=O)(O)O)cc2)nn1 | – | – | – | – | – | – | – | – | – | –
7.17 | > 100 | 6.85 | 0.24 | 0.031 | O=P(O)(O)Cc1cccc(-n2cc(-c3cccc(Cl)c3)nn2)c1 | – | – | – | – | – | – | – | – | – | –
6.74 | 34.7 | 6.67 | 0.97 | 0.08 | O=P(O)(O)Cc1cccc(-n2cc(-c3cccc(F)c3)nn2)c1 | – | – | – | – | – | – | – | – | – | –
